Experimental data reported in patent US6498179B1, “Oxazole derivatives, their production and use” (Takeda Chemical Industries, Ltd., priority 1996, dated 2002).
Where two headings read alike, the source gives them in different places.

Assays:
[1] = system: KKA^y mice; experiment: Test for blood sugar depression in mice; format: in vivo; details: Mus musculus, fasted male KKA^y mice, oral 30 mg/kg, compared with control group
Method: After being fasted for 20 hours, 9- to 12-week-old, male KKA^y mice (five mice in each group) were orally given the test compound at a dose of 30 mg/kg/10 ml through a stomach tube. Control mice were orally given 5% gum arabic solution. Blood samples (70 μl) were obtained from orbital venous plexus through capillary tube before and 60 and 120 minutes after the administration of the test compound. Blood glucose was determined according to a glucose oxidase method using a commercial kit (Iatrochem, GIU(A), Iatron Labs. Inc.). Blood glucose level at 60 or 120 minutes of the test groups was compared with that of control group, and was shown as blood glucose depression (%) (Table 1).

[2] = 1 h, 60 minutes after administration, read-out: Degree of Blood Glucose Depression (%) After 60 minutes
[3] = 2 h, 120 minutes after administration, read-out: Degree of Blood Glucose Depression (%) After 120 minutes

Row | SMILES | melting point | inhibition in vivo at 30 mg/kg [1, 2] | inhibition in vivo at 30 mg/kg [1, 3]
1 | Cc1nccn1-c1nc(-c2ccc(Cl)cc2)c(CCC(=O)NCCCl)o1 | 155 to 156 °C | – | –
2 | Cc1nccn1-c1nc(-c2ccc(Cl)cc2)c(CCCC(=O)NCCCl)o1 | 131 to 132 °C | – | –
3 | Cc1nccn1-c1nc(-c2ccc(Cl)cc2)c(CCCCCn2ccnc2)o1.Cl.Cl.O (hydrate or solvate) | 197 to 199 °C | – | –
4 | COC(=O)CCc1oc(Cl)nc1-c1ccc(Cl)cc1 [Example 1, methyl 2-chloro-4-(4-chlorophenyl)-5-oxazolepropionate] | 71 to 72 °C | – | –
5 | O=C(O)CCc1oc(Cl)nc1-c1ccc(Cl)cc1 [Example 2, 2-chloro-4-(4-chlorophenyl)-5-oxazolepropionic acid] | 169 to 170 °C | – | –
6 | CCOc1nc(-c2ccc(Cl)cc2)c(CCC(=O)O)o1 [Example 3, 4-(4-chlorophenyl)-2-ethoxy-5-oxazolepropionic acid] | 148 to 149 °C | – | –
7 | CC(C)Oc1nc(-c2ccc(Cl)cc2)c(CCC(=O)O)o1 [Example 4, 4-(4-chlorophenyl)-2-isopropoxy-5-oxazolepropionic acid] | 116 to 117 °C | – | –
8 | O=C(O)CCc1oc(Oc2ccccc2)nc1-c1ccc(Cl)cc1 [Example 5, 4-(4-chlorophenyl)-2-phenoxy-5-oxazolepropionic acid] | 136 to 137 °C | – | –
9 | CSc1nc(-c2ccc(Cl)cc2)c(CCC(=O)O)o1 [Example 6, 4-(4-chlorophenyl)-2-methylthio-5-oxazolepropionic acid] | 183 to 184 °C | – | –
10 | CC(C)Sc1nc(-c2ccc(Cl)cc2)c(CCC(=O)O)o1 [Example 7, 4-(4-chlorophenyl)-2-isopropylthio-5-oxazolepropionic acid] | 132 to 133 °C | – | –
11 | O=C(O)CCc1oc(SCc2ccccn2)nc1-c1ccc(Cl)cc1 [Example 8, 4-(4-chlorophenyl)-2-(2-pyridylmethylthio)-5-oxazolepropionic acid] | 125 to 126 °C | – | –
12 | O=C(O)CCc1oc(SCc2cccnc2)nc1-c1ccc(Cl)cc1 [Example 9, 4-(4-chlorophenyl)-2-(3-pyridylmethylthio)-5-oxazolepropionic acid] | 129 to 130 °C | – | –
13 | O=C(O)CCc1oc(Sc2ccccc2)nc1-c1ccc(Cl)cc1 [Example 10, 4-(4-chlorophenyl)-2-phenylthio-5-oxazolepropionic acid] | 156 to 157 °C | – | –
14 | Cc1ccc(Sc2nc(-c3ccc(Cl)cc3)c(CCC(=O)O)o2)cc1 [Example 11, 4-(4-chlorophenyl)-2-(4-methylphenylthio)-5-oxazolepropionic acid] | 160 to 161 °C | – | –
15 | O=C(O)CCc1oc(Sc2ccccn2)nc1-c1ccc(Cl)cc1 [Example 15, 4-(4-chlorophenyl)-2-(2-pyridylthio)-5-oxazolepropionic acid] | – | 22% | 26%
16 | CNc1nc(-c2ccc(Cl)cc2)c(CCC(=O)O)o1 [Example 16, 4-(4-chlorophenyl)-2-methylamino-5-oxazolepropionic acid] | 217 to 218 °C | – | –
17 | O=C(O)CCc1oc(N2CCOCC2)nc1-c1ccc(Cl)cc1 [Example 18, 4-(4-chlorophenyl)-2-morpholino-5-oxazolepropionic acid] | 180 to 181 °C | – | –
18 | O=C(O)CCc1oc(-n2ccnc2)nc1-c1ccc(Cl)cc1 [Example 24, 4-(4-chlorophenyl)-2-(1-imidazolyl)-5-oxazolepropionic acid] | 194 to 195 °C | – | –
19 | Cc1nccn1-c1nc(-c2ccc(Cl)cc2)c(CCC(=O)O)o1 [Example 25, 4-(4-chlorophenyl)-2-(2-methyl-1-imidazolyl)-5-oxazolepropionic acid] | – | 38% | 27%
20 | CCc1nccn1-c1nc(-c2ccc(Cl)cc2)c(CCC(=O)O)o1 [Example 26, 4-(4-chlorophenyl)-2-(2-ethyl-1-imidazolyl)-5-oxazolepropionic acid] | – | 32% | 27%
21 | O=C(O)CCc1oc(-n2cccn2)nc1-c1ccc(Cl)cc1 [Example 28, 4-(4-chlorophenyl)-2-(1-pyrazolyl)-5-oxazolepropionic acid] | – | 24% | 33%
22 | CCCc1nccn1-c1nc(-c2ccc(Cl)cc2)c(CCC(=O)O)o1 [Example 30, 4-(4-chlorophenyl)-2-(2-propyl-1-imidazolyl)-5-oxazolepropionic acid] | 174 to 175 °C | – | –

Row | SMILES | melting point | inhibition in vivo at 30 mg/kg [1, 2] | inhibition in vivo at 30 mg/kg [1, 3]
23 | CC(C)c1nccn1-c1nc(-c2ccc(Cl)cc2)c(CCC(=O)O)o1 [Example 31, 4-(4-chlorophenyl)-2-(2-isopropyl-1-imidazolyl)-5-oxazolepropionic acid] | – | 27% | 28%
24 | CSc1nccn1-c1nc(-c2ccc(Cl)cc2)c(CCC(=O)O)o1 [Example 32, 4-(4-chlorophenyl)-2-(2-methylthio-1-imidazolyl)-5-oxazolep ropionic acid] | – | 25% | 28%
25 | O=C(O)CCc1oc(-n2cnc3ccccc32)nc1-c1ccc(Cl)cc1 [Example 34, 4-(4-chlorophenyl)-2-(1-benzimidazolyl)-5-oxazolepropionic acid] | – | 27% | 25%
26 | Cc1nccn1-c1nc(-c2ccc(Cl)cc2)c(CCC(N)=O)o1 [Example 41, 4-(4-chlorophenyl)-2-(2-methyl-1-imidazolyl)-5-oxazolepropionamide] | 215 to 216 °C | – | –
27 | Cc1nccn1-c1nc(-c2ccc(Cl)cc2)c(CCC2=NCCO2)o1 [Example 46, 4-(4-chlorophenyl)-2-(2-methyl-1-imidazolyl)-5-[2-(2-oxazolin-2-yl)ethyl]oxazole] | 119 to 120 °C | – | –
28 | CCc1nccn1-c1nc(-c2ccc(Cl)cc2)c(CCC2=NCCO2)o1 [Example 50, 4-(4-chlorophenyl)-2-(2-ethyl-1-imidazolyl)-5-[2-(2-oxazolin-2-yl)ethyl]oxazole] | 53 to 54 °C | – | –
29 | CCOC(=O)CCc1oc(-n2ccnc2C)nc1-c1ccc(Cl)cc1 [Example 52, ethyl 4-(4-chlorophenyl)-2-(2-methyl-1-imidazolyl)-5-oxazolepropionate] | 70 to 71 °C | – | –
30 | OCCCc1oc(-n2ccnc2)nc1-c1ccc(Cl)cc1 [Example 57, 4-(4-chlorophenyl)-2-(1-imidazolyl)-5-oxazolepropanol] | 114 to 115 °C | – | –
31 | Cc1nccn1-c1nc(-c2ccc(Cl)cc2)c(CCC2=NCCS2)o1 [Example 60, 4-(4-chlorophenyl)-2-(2-methyl-1-imidazolyl)-5-[2-(2-thiazolin-2-yl)ethyl]oxazole] | 73 to 74 °C | – | –
32 | O=C(O)CCCc1oc(Cl)nc1-c1ccc(Cl)cc1 [Example 62, 2-chloro-4-(4-chlorophenyl)-5-oxazolebutyric acid] | 211 to 212 °C | – | –
33 | CCOC(=O)CCCc1oc(-n2ccnc2C)nc1-c1ccc(Cl)cc1 [Example 64, ethyl 4-(4-chlorophenyl)-2-(2-methyl-1-imidazolyl)-5-oxazolebutyrate] | 72 to 73 °C | – | –
34 | Cc1nccn1-c1nc(-c2ccc(Cl)cc2)c(CCCC2=NCCO2)o1 [Example 67, 4-(4-chlorophenyl)-2-(2-methyl-1-imidazolyl)-5-[3-(2-oxazolin-2-yl)propyl]oxazole] | 88 to 89 °C | – | –
35 | CON(C)C(=O)CCc1oc(-n2ccnc2C)nc1-c1ccc(Cl)cc1 [Example 68, N-methoxy-N-methyl-4-(4-chlorophenyl)-2-(2-methyl-1-imidazolyl)-5-oxazolepropionamide] | 116 to 117 °C | – | –
36 | Cc1nccn1-c1nc(-c2ccc(Cl)cc2)c(CCC=O)o1 [Example 69, 4-(4-chlorophenyl)-2-(2-methyl-1-imidazolyl)-5-oxazolepropionaldehyde] | 109 to 110 °C | – | –
37 | Cc1nccn1-c1nc(-c2ccc(Cl)cc2)c(CCC2NCCS2)o1 (centres unmarked) [Example 70, 2-[2-[4-(4-chlorophenyl)-2-(2-methyl-1-imidazolyl)-5-oxazolyl]ethyl]thiazolidine] | 110 to 111 °C | – | –
38 | Cc1nccn1-c1nc(-c2ccc(Cl)cc2)c(CCCOS(C)(=O)=O)o1 [Example 71, 3-[4-(4-chlorophenyl)-2-(2-methyl-1-imidazolyl)-5-oxazolyl]propyl methanesulfonate] | 97 to 98 °C | – | –
39 | Cc1nccn1-c1nc(-c2ccc(Cl)cc2)c(CCO)o1 [Example 78, 4-(4-chlorophenyl)-2-(2-methyl-1-imidazolyl)-5-oxazolethanol] | 159 to 160 °C | – | –
40 | CCOC(=O)CCCCc1oc(-n2ccnc2C)nc1-c1ccc(Cl)cc1 [Example 81, ethyl 4-(4-chlorophenyl)-2-(2-methyl-1-imidazolyl)-5-oxazolepentanoate] | 93 to 94 °C | – | –
41 | Cc1nccn1-c1nc(-c2ccc(Cl)cc2)c(CCCCCCO)o1 [Example 84, 4-(4-chlorophenyl)-2-(2-methyl-1-imidazolyl)-5-oxazolehexanol] | 70 to 71 °C | – | –
42 | Cc1nccn1-c1nc(-c2ccc(Cl)cc2)c(CCCCn2cncn2)o1 [Example 88, 1-[4-[4-(4-chlorophenyl)-2-(2-methyl-1-imidazolyl)-5-oxazolyl]butyl]1,2,4-triazole] | 74 to 75 °C | – | –
43 | CCOC(=O)c1nccn1CCCCc1oc(-n2ccnc2C)nc1-c1ccc(Cl)cc1 [Example 92, ethyl 1-[4-[4-(4-chlorophenyl)-2-(2-methyl-1-imidazolyl)-5-oxazolyl]butyl]-2-imidazolecarboxylate] | 134 to 135 °C | – | –
